The compounds below were run on hypoxia-inducible endogenous VEGF expression in HeLa cells (assay: Hypoxia-inducible endogenous VEGF expression, VEGF ELISA of conditioned media (dose-response EC50)). Details: HeLa cells, hypoxic conditions (1% O2).
Assay type: cell-based
Outline: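 HeLa cells were cultured 24-48 h under hypoxia (1% O2, 5% CO2, balance N2) with or without compound. Conditioned-media VEGF protein was measured by ELISA against a standard curve. EC50 and CC50 come from percentage-inhibition curves over, e.g., seven concentrations, with maximal inhibition set at 100%.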
Compound O=C(Oc1ccc(Cl)cc1)N1CCc2c([nH]c3ccc(Br)cc23)C1c1ccc(C(F)(F)F)cc1 (centres unmarked) [Compound 570] has an EC50 of less than 8 nM.

Same assay, conditions: Homo sapiens, HeLa cells under hypoxic conditions
Brc1cccc(C2NCCc3c2[nH]c2ccc(Br)cc32)c1 (centres unmarked) [Compound 213] gave an EC50 of 200 to 1000 nM. For COc1ccc(C2c3[nH]c4ccccc4c3CCN2C(=O)NC(C)C)cc1 (centres unmarked) [Compound 306], the EC50 was greater than 1000 nM. COc1ccc(OC(=O)N2CCc3c([nH]c4ccc(Cl)cc34)C2c2ccc(S(C)(=O)=O)cc2)cc1 (centres unmarked) [Compound 359] showed an EC50 of 40 to 200 nM. COc1ccc2[nH]c3c(c2c1)CCNC3c1cccnc1 (centres unmarked) [Compound 324] gave an EC50 greater than 1000 nM. COc1ccc(C2NC(C(=O)O)Cc3c2[nH]c2ccc(Br)cc32)cc1 (centres unmarked) [Compound 300] gave an EC50 greater than 1000 nM. COc1ccc(C2c3[nH]c4ccc(Cl)cc4c3CCN2C(=O)OCC(C)C)cc1 (centres unmarked) [Compound 30] gave an EC50 of less than 8 nM. For COc1ccc(C2NC(C(=O)Nc3ncc(C)s3)Cc3c2[nH]c2ccc(Br)cc32)cc1 (centres unmarked) [Compound 246], the EC50 was greater than 1000 nM. In the case of CCOC(=O)COc1ccc(C2c3[nH]c4ccc(Cl)cc4c3CCN2C(=O)OCC)cc1 (centres unmarked) [Compound 365], the EC50 is reported as 40 to 200 nM. S=C(NC1CCCCC1)N1CCc2c([nH]c3ccc(Br)cc23)C1c1cccc(Cl)c1 (centres unmarked) [Compound 150] gave an EC50 of 40 to 200 nM. COc1ccc(C2c3[nH]c4ccc(Cl)cc4c3CCN2C(=O)Oc2ccccc2)cc1 (centres unmarked) [Compound 60] gave an EC50 of 8 to 40 nM. For COC(=O)N1CCc2c([nH]c3ccc(Cl)cc23)C1c1ccc(Br)cc1 (centres unmarked) [Compound 46], the EC50 was 8 to 40 nM. With COc1ccc(C2c3[nH]c4ccc(Cl)cc4c3CCN2C(=O)Cc2ccccc2)cc1 (centres unmarked) [Compound 368] the EC50 was 200 to 1000 nM. Compound COC(=O)N1CCc2c([nH]c3ccc(Cl)cc23)C1c1ccc2c(c1)OCO2 (centres unmarked) [Compound 133] has an EC50 of 40 to 200 nM. For COc1ccc2[nH]c3c(c2c1)CCNC3c1ccccc1 (centres unmarked) [Compound 322], the EC50 was greater than 1000 nM. Work on COC(=O)N1CCc2c([nH]c3ccc(Cl)cc23)C1c1ccc(C(F)(F)F)cc1 (centres unmarked) [Compound 62] yielded an EC50 of 8 to 40 nM. Compound COC(=O)c1cccc(NC(=S)N2CCc3c([nH]c4ccccc34)C2c2ccc(OC)cc2)c1 (centres unmarked) [Compound 316] has an EC50 greater than 1000 nM. Compound Oc1ccc(C2NCCc3c2[nH]c2ccc(Cl)cc32)cc1 (centres unmarked) [Compound 296] has an EC50 greater than 1000 nM. With Cc1ccc(C2c3[nH]c4ccc(Cl)cc4c3CCN2C(=O)OC(C)C)cc1 (centres unmarked) [Compound 36] the EC50 was less than 8 nM. Clc1ccc2[nH]c3c(c2c1)CCNC3c1ccc(OCCN2CCOCC2)cc1 (centres unmarked) [Compound 363] showed an EC50 greater than 1000 nM. For COc1ccc(C2c3[nH]c4ccccc4c3CCN2C(=S)Nc2ccc(C)cc2)cc1 (centres unmarked) [Compound 317], the EC50 was greater than 1000 nM. CCOC(=O)N1CCc2c([nH]c3ccc(Cl)cc23)C1c1cc(F)cc(F)c1 (centres unmarked) [Compound 77] was tested, and the EC50 was 8 to 40 nM. COCC(=O)N1CCc2c([nH]c3ccc(Br)cc23)C1c1cccc(Cl)c1 (centres unmarked) [Compound 218] was tested, and the EC50 was 200 to 1000 nM. CC(C)c1ccc(C2c3[nH]c4ccc(Cl)cc4c3CCN2C(=O)OCCF)cc1 (centres unmarked) [Compound 330] was tested, and the EC50 was greater than 1000 nM. CCC1NCCc2c1[nH]c1ccc(Cl)cc21 (centres unmarked) [Compound 298] showed an EC50 greater than 1000 nM. In the case of CCOC(=O)N1CCc2c([nH]c3ccc(Cl)cc23)C1c1ccccc1Cl (centres unmarked) [Compound 183], the EC50 is reported as 200 to 1000 nM. CC(=O)N1CCc2c([nH]c3ccc(Br)cc23)C1c1ccc(Cl)cc1 (centres unmarked) [Compound 50] gave an EC50 of 8 to 40 nM. O=C(Oc1ccccc1)N1CCc2c([nH]c3ccc(Br)cc23)C1c1ccccc1 (centres unmarked) [Compound 76] gave an EC50 of 8 to 40 nM.

Same assay, conditions: Homo sapiens, HeLa cells, hypoxic conditions (1% O2)
With COCCOc1ccc(C2c3[nH]c4ccc(Cl)cc4c3CCN2C(=O)OCCF)cc1 (centres unmarked) [Compound 423] the EC50 was less than 8 nM. CCOC(=O)N1CCc2c([nH]c3ccc(Br)cc23)C1c1ccc(C(=O)N(C)CCN(C)C)cc1 (centres unmarked) [Compound 516] showed an EC50 of 200 to 1000 nM. COCCOCCOc1ccc(C2c3[nH]c4ccc(Cl)cc4c3CCN2C(=O)Oc2ccccc2)cc1 (centres unmarked) [Compound 670] showed an EC50 of less than 8 nM. Work on CCOC(=O)N1CCc2c([nH]c3ccc(Cl)cc23)C1c1ccc(C(=O)NCC2COC(C)(C)O2)cc1 (centres unmarked) [Compound 461] yielded an EC50 of 8 to 40 nM. Work on CCOC(=O)N1CCc2c([nH]c3ccc(Cl)cc23)C1c1cccc(C(=O)NCCN2CCOCC2)c1 (centres unmarked) [Compound 552] yielded an EC50 of 200 to 1000 nM. Work on CCOC(=O)N1CCc2c([nH]c3ccc(Cl)cc23)C1c1cnc(N(C)C)nc1 (centres unmarked) [Compound 476] yielded an EC50 of 40 to 200 nM. CCOC(=O)N1CCc2c([nH]c3ccc(Cl)cc23)C1c1ccc(C(=O)N2CCN(CC)CC2)cc1 (centres unmarked) [Compound 473] was tested, and the EC50 was 40 to 200 nM. O=C(Oc1ccccc1)N1CCc2c([nH]c3ccc(Cl)cc23)C1c1ccc(OCCCCl)cc1 (centres unmarked) [Compound 710] showed an EC50 of less than 8 nM. COc1ccc(OC(=O)N2CCc3c([nH]c4ccc(Cl)cc34)C2c2ccc(S(=O)(=O)N3CCOCC3)cc2)cc1 (centres unmarked) [Compound 455] was tested, and the EC50 was 8 to 40 nM. COc1ccc(OC(=O)N2CCc3c([nH]c4ccc(Cl)cc34)C2c2ccc(OCC(O)CO)cc2)cc1 (centres unmarked) [Compound 635] was tested, and the EC50 was 8 to 40 nM. Compound O=C(Oc1ccc(F)cc1)N1CCc2c([nH]c3ccc(Cl)cc23)C1c1ccc(OCCCCn2cncn2)cc1 (centres unmarked) [Compound 743] has an EC50 of less than 8 nM. Compound O=C(Oc1ccc(Cl)cc1)N1CCc2c([nH]c3ccc(Cl)cc23)C1c1ccc(OCCCCCCNCCCn2ccnc2)cc1 (centres unmarked) [Compound 789] has an EC50 of 40 to 200 nM. O=C(Oc1ccc(F)cc1)N1CCc2c([nH]c3ccc(Br)cc23)C1c1ccc(C(F)(F)F)cc1 (centres unmarked) [Compound 397] showed an EC50 of less than 8 nM. With COc1ccc(OC(=O)N2CCc3c([nH]c4ccc(Cl)cc34)C2c2ccc(OCCCN(C)C)cc2)cc1 (centres unmarked) [Compound 501] the EC50 was 40 to 200 nM. CC(=O)Oc1ccc(C2c3[nH]c4ccc(Cl)cc4c3CCN2C(=O)Oc2ccc(Cl)cc2)cc1 (centres unmarked) [Compound 463] showed an EC50 of 8 to 40 nM. For CCOC(=O)N1CCc2c([nH]c3ccc(Cl)cc23)C1c1ccc(C(=O)N2CCN(C)CC2)cc1 (centres unmarked) [Compound 498], the EC50 was 40 to 200 nM. In the case of O=C(Oc1ccc(F)cc1)N1CCc2c([nH]c3ccc(Cl)cc23)C1c1ccc(OCCCCCCN2CCCCC2)cc1 (centres unmarked) [Compound 777], the EC50 is reported as less than 8 nM. CCOC(=O)N1CCc2c([nH]c3ccc(Cl)cc23)C1c1ccc(C(=O)NCCN2CCOCC2)cc1 (centres unmarked) [Compound 509] gave an EC50 of 40 to 200 nM. Work on CCOC(=O)N1CCc2c([nH]c3ccc(Cl)cc23)C1CC(C)c1ccccc1 (centres unmarked) [Compound 508] yielded an EC50 of 40 to 200 nM. In the case of CC(C)OC(=O)Nc1ccc(C2c3[nH]c4ccc(Cl)cc4c3CCN2C(=O)Oc2ccc(Cl)cc2)cc1 (centres unmarked) [Compound 489], the EC50 is reported as 40 to 200 nM. Work on O=C(Oc1ccc(Cl)cc1)N1CCc2c([nH]c3ccc(Cl)cc23)C1c1ccc(OCCCCCCN2CCOCC2)cc1 (centres unmarked) [Compound 786] yielded an EC50 of less than 8 nM. CCOC(=O)N1CCc2c([nH]c3ccc(Br)cc23)C1c1ccc(C(=O)N2CCN(CCO)CC2)cc1 (centres unmarked) [Compound 466] showed an EC50 of 8 to 40 nM. Work on O=C(Oc1ccc(F)cc1)N1CCc2c([nH]c3ccc(Cl)cc23)C1c1ccc(OCCCCCCn2cncn2)cc1 (centres unmarked) [Compound 781] yielded an EC50 of less than 8 nM. CCOC(=O)N1CCc2c([nH]c3ccc(Br)cc23)C1c1ccc(CNCCN2CCOCC2)cc1 (centres unmarked) [Compound 535] showed an EC50 of 200 to 1000 nM. Work on O=C(O)c1ccc(C2c3[nH]c4ccc(Cl)cc4c3CCN2C(=O)Oc2ccc(F)cc2)cc1 (centres unmarked) [Compound 581] yielded an EC50 greater than 1000 nM. With CN(C)CCCOc1ccc(C2c3[nH]c4ccc(Cl)cc4c3CCN2C(=O)OCCF)cc1 (centres unmarked) [Compound 456] the EC50 was 8 to 40 nM. Work on O=C(O)c1ccc(C2c3[nH]c4ccc(Br)cc4c3CCN2C(=O)Oc2ccc(Cl)cc2)cc1 (centres unmarked) [Compound 519] yielded an EC50 of 200 to 1000 nM. For CCOC(=O)N1CCc2c([nH]c3ccc(Cl)cc23)C1c1ccc(C(=O)NCC2CCCO2)cc1 (centres unmarked) [Compound 494], the EC50 was 40 to 200 nM. With COC(=O)c1ccc(C2c3[nH]c4ccc(Cl)cc4c3CCN2C(=O)Oc2ccc(Cl)cc2)cc1 (centres unmarked) [Compound 580] the EC50 was less than 8 nM. Compound CCOC(=O)N1CCc2c([nH]c3ccc(Br)cc23)C1c1ccc(C(=O)N2CCN(CC)CC2)cc1 (centres unmarked) [Compound 425] has an EC50 of less than 8 nM. O=C(Oc1ccc(Cl)cc1)N1CCc2c([nH]c3ccc(Cl)cc23)C1c1ccc(OCCO)cc1 (centres unmarked) [Compound 571] showed an EC50 of 200 to 1000 nM. In the case of CC(=O)N1CCN(CC(O)COc2ccc(C3c4[nH]c5ccc(Cl)cc5c4CCN3C(=O)Oc3ccc(Cl)cc3)cc2)CC1 (centres unmarked) [Compound 415], the EC50 is reported as less than 8 nM. O=C(Oc1ccc(F)cc1)Oc1ccc(C2c3[nH]c4ccc(Cl)cc4c3CCN2C(=O)Oc2ccc(F)cc2)cc1 (centres unmarked) [Compound 576] gave an EC50 of 40 to 200 nM. COCCCNCCCCCCOc1ccc(C2c3[nH]c4ccc(Cl)cc4c3CCN2C(=O)Oc2ccc(Cl)cc2)cc1 (centres unmarked) [Compound 785] was tested, and the EC50 was less than 8 nM. Work on CN(C)CC(=O)Nc1ccc(C2c3[nH]c4ccc(Cl)cc4c3CCN2C(=O)Oc2ccc(Cl)cc2)cc1 (centres unmarked) [Compound 491] yielded an EC50 of 40 to 200 nM. Work on COCCCNCCCCOc1ccc(C2c3[nH]c4ccc(Cl)cc4c3CCN2C(=O)Oc2ccc(F)cc2)cc1 (centres unmarked) [Compound 737] yielded an EC50 of 8 to 40 nM.

Same assay, conditions: Homo sapiens, HeLa cells, hypoxic conditions (1% O2, 5% CO2)
CN1CCN(CC(O)COc2ccc(C3c4[nH]c5ccc(Cl)cc5c4CCN3C(=O)Oc3ccc(Cl)cc3)cc2)CC1 (centres unmarked) [Compound 970] was tested, and the EC50 was 8 to 40 nM. For COCCN(C)CC(O)COc1ccc(C2c3[nH]c4ccc(Cl)cc4c3CCN2C(=O)Oc2ccc(F)cc2)cc1 (centres unmarked) [Compound 936], the EC50 was less than 8 nM. O=C(Oc1ccc(Cl)cc1)N1CCc2c([nH]c3ccc(Cl)cc23)C1c1ccc(OCC(O)Cn2ccnc2)cc1 (centres unmarked) [Compound 867] was tested, and the EC50 was 8 to 40 nM. In the case of CS(=O)(=O)NCC(O)COc1ccc(C2c3[nH]c4ccc(Cl)cc4c3CCN2C(=O)Oc2ccc(Cl)cc2)cc1 (centres unmarked) [Compound 849], the EC50 is reported as 8 to 40 nM. O=C(Oc1ccc(Cl)cc1)N1CCc2c([nH]c3ccc(Cl)cc23)C1c1ccc(OCCCCl)cc1 (centres unmarked) [Compound 921] showed an EC50 of less than 8 nM. With O=C(Oc1ccc(F)cc1)N1CCc2c([nH]c3ccc(Cl)cc23)C1c1ccc(OCCn2ccnc2)cc1 (centres unmarked) [Compound 835] the EC50 was 40 to 200 nM. COCCN(CCOC)CC(O)COc1ccc(C2c3[nH]c4ccc(Cl)cc4c3CCN2C(=O)Oc2ccc(F)cc2)cc1 (centres unmarked) [Compound 913] gave an EC50 of less than 8 nM. With CNCC(O)COc1ccc(C2c3[nH]c4ccc(Cl)cc4c3CCN2C(=O)Oc2ccc(Cl)cc2)cc1 (centres unmarked) [Compound 850] the EC50 was 40 to 200 nM. For CC(=O)NCC(O)COc1ccc(C2c3[nH]c4ccc(Cl)cc4c3CCN2C(=O)Oc2ccc(Cl)cc2)cc1 (centres unmarked) [Compound 847], the EC50 was 8 to 40 nM. CCN(CC)CCCOc1ccc(C2c3[nH]c4ccc(Cl)cc4c3CCN2C(=O)Oc2ccc(Cl)cc2)cc1 (centres unmarked) [Compound 946] was tested, and the EC50 was 8 to 40 nM.

From patent US8076352B2, “Administration of carboline derivatives useful in the treatment of cancer and other diseases” (PTC Therapeutics, Inc., priority 2004, dated 2011)
